{"source": "patent US20260335238A1", "about": "“SPRAY-DRIED COMPOSITIONS COMPRISING CGRP RECEPTOR ANTAGONISTS” (OREXO AB, priority 2023, published 2026)", "test": "Chemical stability of spray-dried zavegepant powder on storage, assay and % RS by HPLC/UV", "format": "physicochemical", "details": "zavegepant formulated as spray-dried powder, stored up to 6 months at 25/60 and 40/75", "description": "The assay and purity, determined by HPLC/UV analysis, was 103.4% with a % RS of 1.46%.\nAmounts of around 100 mg of the spray-dried powder from Example 2 above was dispensed into plastic DUMA containers placed in heat-sealed aluminium pouches together with a 4 Å molecular sieve desiccant. Two containers were placed inside a climate cabinet at 40 °C and 75% relative humidity (40/75) and two containers were placed inside a climate cabinet at 25 °C and 60% relative humidity (25/60).\nThe chemical stability of the drug substance after 6 months, with assay and total amounts of impurities and degradation products expressed as % RS, is summarized for the different climates in Table 3 below, in which NA means ‘not analysed’."}
{"compound": "Cc1cc(C[C@@H](NC(=O)N2CCC(c3cc4ccccc4[nH]c3=O)CC2)C(=O)N2CCN(C3CCN(C)CC3)CC2)cc2cn[nH]c12", "note": "[zavegepant]", "values": [{"measurement": "chemical stability (observed changes in % RS)", "result": "surprisingly good"}]}
